The values below come from patent US9301951B2 (Ardelyx, Inc., priority 2010, dated 2016).

A short description of series [1]: Fecal recovery of orally administered compounds. Format: in vivo. The conditions noted are these: rat; oral gavage; feces collected until 48 hr after dosing. From the text: In this respect, it is understood that a recovered compound can include the sum of the parent compound and its metabolites derived from the parent compound, e.g., by means of hydrolysis, conjugation, reduction, oxidation, N-alkylation, glucuronidation, acetylation, methylation, sulfation, phosphorylation, or any other modification that adds atoms to or removes atoms from the parent compound, wherein the metabolites are generated via the action of any enzyme or exposure to any physiological environment including, pH, temperature, pressure, or interactions with foodstuffs as they exist in the digestive milieu. Measurement of fecal recovery of compound and metabolites can be carried out using standard methodology. For example, compound can be administered orally at a suitable dose (e.g., 10 mg/kg) and feces are then collected at predetermined times after dosing (e.g., 24 hours, 48 hours, 72 hours). Parent compound and metabolites can be extracted with organic solvent and analyzed quantitatively using mass spectrometry. A mass balance analysis of the parent compound and metabolites (including, parent=M, metabolite 1 [M+16], and metabolite 2 [M+32]) can be used to determine the percent recovery in the feces.
Quantitative determination of test compound level in feces after oral gavage was performed using the same set of animals used to determine test compound concentration in plasma (Example 352). The animals were kept in metabolic cages and feces were collected from the time of dosing until 48 hr after dosing. Upon collection, feces were dried by lyophilization and ground to a visually homogenous powder. Duplicate samples of ground feces from each individual animal were weighed out and extracted using organic solvent. Extracted samples were then diluted into mobile phase and test compound levels were quantitatively determined by LC-MS/MS analysis as described in Example 352 except that the standard curve was prepared in a feces matrix. Extraction conditions were not optimized for individual compounds, and thus may represent a minimal level of recovery.

Series [2] has as its system Sprague-Dawley rats. Description: In vivo bolus phosphorus challenge (serum phosphate elevation). The conditions noted are these: rat; oral; drug dose 30; phosphate bolus 15 min after compound; serum 30 min post bolus. Here is the method:
By pretreating animals with a low phosphorus diet followed by the subsequent dosing of a phosphorus bolus, serum phosphorus levels were monitored after 30 minutes as a surrogate for intestinal phosphorus absorption. […] The in vivo bolus phosphorus challenge model used here mimics this model in rats.
Male, 7-week-old Sprague-Dawley rats (Charles-River laboratories international, Hollister, Calif.) were allowed to acclimatize for a minimum of 3 days before switching to a synthetic low-phosphorus diet (TD.85010, Harlan Teklad, Madison, Wis.) which contains 0.1% phosphorus and 0.6% calcium. At day 5, testing compounds or vehicle alone (as indicated) were orally administered at the indicated dose in a volume of 5 ml/kg, followed by a bolus gavage of monobasic sodium phosphate (1 mmol in 1 ml) 15 min after compound dosing. Serum was collected via retroorbital bleeding 30 min post phosphate bolus and phosphate levels were determined utilizing an ACE ALERA blood chemistry analyzer (Alfa Wassermann Diagnostic Technologies, West Caldwell, N.J.).
The extent of inhibition by test compounds on the elevation of serum phosphate levels in response to the bolus of phosphorus is shown in Table 12 (data are expressed as % Inhibition, with 6-10 animals per data point). The differences between groups were evaluated by one-way analysis of variance with Dunnett's post hoc tests.

The subject of series [3] is 5/6 nephrectomy (5/6Nx) rat model of CKD. Description: In vivo evaluation in CKD rats (5/6 nephrectomy, 0.9% P diet, calcitriol). To be noted: study 1, drug in chow, 2 weeks.
Description: To assess the ability of selected example compounds to impact the progression of chronic kidney disease (CKD), 5/6 nephrectomy (5/6Nx) rat model of CKD was used. […] 5/6 Nx rats were obtained from Charles River Labs (CRL, Hollister, Calif.). Upon arrival, the surgeries and extent of kidney damage in the animals were assessed by measuring serum creatinine, P, Ca, and BUN. Based on this analysis, rats with inconsistent kidney function were removed from the study and the remainder of the cohort was divided in to evenly stratified test groups. The remaining animals were then placed on the same synthetic diet used in the drug-in-chow studies (Example 350), except the P levels were adjusted to 0.9% P. Drugs are blended into this chow to achieve the required dosing rate. At this time, rats were also started on an activated Vitamin D regimen in which they were injected intraperitoneally with calcitriol at 80 ng/kg three times a week. Once a week, serum was collected via retro orbital bleeding for analysis of serum P and creatinine utilizing an ACE ALERA blood chemistry analyzer. […] Unless otherwise indicated, the data shown is from the serum collected at 2 weeks after initiation of the treatment regimen. In addition, for study #3, during the third week of the study, the animals were placed in metabolic cages for two days, and urine collected for the final 24 hours.
Series [4] deals with Sprague-Dawley rats. As to the kind of experiment: In vivo co-dosing in chow (urine P out / P consumed). The conditions noted are these: feed or water; rat; drug in chow, nominal 100 mg/kg/day (mean dose per line in table); urine 24-96 h; read-out: Mean % inhibition Urine Pout/P consumed. From the text:
Male, 7-week-old Sprague-Dawley rats (Charles-River laboratories international, Hollister, Calif.) were allowed to acclimate for a minimum of 3 days. The experiment was initiated by switching animals to a synthetic diet (0.6% phosphorus and 0.6% calcium, Harlan Teklad TD.84122) for four days. After this time, the animals were placed into metabolic cages for daily monitoring of food and water consumption, as well as urine and fecal collections. Test compounds were incorporated into the powdered diet listed above containing 3% chocolate flavoring (w/w, BioServ #7345) at 1.3 mg test compound per gram of diet to achieve an average daily nominal dose of 100 mg/kg/day. The actual dose received by each animal was later determined by measuring prepared diet consumption and body weight. Urine samples were collected in three daily periods from 24-48, 48-72, and 72-96 hours of drug dosing. […] Phosphorus levels in the urine were determined by anion exchange chromatography using a Dionex ICS-3000 ion chromatography system. […] Elution of urine phosphate ions was monitored via conductivity detector and reported as ppm relative to a standard ion solution containing phosphate. Daily urinary P output relative to the P consumed in the prepared diet for each animal was calculated. […] The differences between the means of control and treated groups were evaluated by t tests. […]

A short description of series [5]: Stability of compounds in simulated intestinal fluid (SIF). The format is in vitro ADME. To be noted: simulated intestinal fluid (USP, 3 mg/mL pancreatin), 1-20 μM, incubation time 6 hr, relative to t=0. Here is the method:
(§1) Test compounds were incubated at 1-20 μM in simulated gastric fluid (SGF; standard USP solution with 3 mg/mL pepsin) or simulated intestinal fluid (SIF; standard USP solution with 3 mg/mL pancreatin) for 3 hr or 6 hr. HPLC-UV or HPLC-MS were used to determine test compound levels using peak area %. Results (Table 14) were reported as the percentage of test compound remaining after incubation in a given condition relative to test compound present at t=0 in the same condition.

A short description of series [6]: Stability of compounds in simulated gastric fluid (SGF). Format: in vitro ADME. The conditions noted are these: simulated gastric fluid (USP, 3 mg/mL pepsin), 1-20 μM, incubation time 6 hr, relative to t=0. Here is the method: as §1

Consider `O=C(O)CCSCc1cccc(C(=O)Nc2ccc(N3CCCCC3)cc2-c2cc(C(=O)NCc3cccc(C(F)(F)F)c3)ccn2)c1` [Example 1.1, 3-(3-((2-(4-((3-(trifluoromethyl)benzyl)carbamoyl)pyridin-2-yl)-4-(piperidin-1-yl)phenyl)carbamoyl)-benzylthio)propanoic acid], for which the “% recovered in feces” value in series [1] is 20-80%. Moreover, the “% Inhibition of Serum P elevation” value in the series with Sprague-Dawley rats [2] was 20-30%.

For the molecule `CCN(CC)c1ccc(NC(=O)c2cccc(C(=O)N(C)CCN3CCOCC3)c2)c(-c2cc(C(=O)NCc3cccc(C(F)(F)F)c3)ccn2)c1` [Example 25, N1-(4-(Diethylamino)-2-(4-((3-(trifluoromethyl)benzyl)carbamoyl)pyridin-2-yl)phenyl)-N3-methyl-N3-(2-morpholinoethyl)isophthalamide], in series [3], the “Ser CRE” value is recorded as 1.3 mg/dL and the “Ser P” value was 10 mg/dL. The “FGF23, pg/mL” value in series [3] (serum) is recorded as ~10,000 pg/mL. In addition, the inhibition in vivo at 100 mg/kg/day in the series with Sprague-Dawley rats [4] fell in the range of 10 to 30%. Also, the “% recovered in feces” value in series [1] is 20-80%. Further, the “% remaining, SIF” value in series [5] is 80%. In series [6], the “% remaining, SGF” value was above 80%.
